Test results taken from PubChem BioAssay AID493145 (Sanford-Burnham Center for Chemical Genomics, 2011).
pEC50: −log10 of the molar value. Where “and” joins values, the source holds several entries; their conditions need not be identical. Equal values may be shown once. Calls of active or inactive are those of the source. The rule behind the calls is not given here.

Molecular target: Intestinal-type alkaline phosphatase (Homo sapiens) (UniProt P09923)
Assay: human IAP activators, SAR follow-up, mouse IAP activator project, biochemical, human enzyme for mouse series (AID 493145)
Details: purified human intestinal alkaline phosphatase, enzymatic activity

Intestinal-type alkaline phosphatase (Homo sapiens), sequence (P09923 whole entry, looked up): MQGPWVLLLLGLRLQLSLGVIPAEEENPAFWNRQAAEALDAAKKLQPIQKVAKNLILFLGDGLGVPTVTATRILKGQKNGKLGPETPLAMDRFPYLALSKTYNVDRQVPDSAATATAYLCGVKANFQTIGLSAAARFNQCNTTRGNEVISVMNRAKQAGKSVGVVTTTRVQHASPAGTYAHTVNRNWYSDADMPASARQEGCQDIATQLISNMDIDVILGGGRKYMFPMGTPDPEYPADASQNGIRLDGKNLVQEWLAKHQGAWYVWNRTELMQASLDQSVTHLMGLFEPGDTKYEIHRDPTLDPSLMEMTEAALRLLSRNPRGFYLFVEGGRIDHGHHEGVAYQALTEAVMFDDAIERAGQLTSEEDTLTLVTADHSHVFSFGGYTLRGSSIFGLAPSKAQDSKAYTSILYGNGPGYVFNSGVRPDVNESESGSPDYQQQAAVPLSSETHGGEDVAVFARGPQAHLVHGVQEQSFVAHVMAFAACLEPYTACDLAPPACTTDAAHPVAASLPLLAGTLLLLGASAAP

Row | Structure (SMILES) | EC50 | pEC50
1 | N#Cc1c(SCC(=O)Nc2nc3ccc(Br)cc3s2)sc2c(O)cc(=O)[nH]c12 | > 100 µM (inactive) | –
2 | COc1ccccc1NC(=O)CSc1sc2c(O)cc(=O)[nH]c2c1C#N | > 100 µM (inactive) | –
3 | CC(C(=O)N(C)C1CCS(=O)(=O)C1)N1C(=O)/C(=C/c2ccco2)SC1=S (configuration not stated) | > 100 µM (inactive) | –
4 | COc1cccc(NC(=O)CN(C)S(=O)(=O)c2ccc3[nH]c(=O)oc3c2)c1 | > 100 µM (inactive) | –
5 | O=C(CN1C(=O)/C(=C/c2ccco2)SC1=S)N[C@@H]1CSC[C@@H]1O | > 100 µM (inactive) | –
6 | N#Cc1cccc(NC(=O)CSc2sc3c(O)cc(=O)[nH]c3c2C#N)c1 | > 100 µM (inactive) | –
7 | CCc1ccc(NC(=O)CN(C)S(=O)(=O)c2ccc3[nH]c(=O)oc3c2)cc1 | > 100 µM (inactive) | –
8 | COc1ccccc1CNC(=O)CCNS(=O)(=O)c1ccc2[nH]c(=O)oc2c1 | > 100 µM (inactive) | –
9 | O=C(CN1C(=O)/C(=C/c2ccco2)SC1=S)Nc1ccc(C(=O)O)c(O)c1 | > 100 µM (inactive) | –
10 | O=C(CN1C(=O)/C(=C/c2ccco2)SC1=S)Nc1ccc2nccnc2c1 | > 100 µM (inactive) | –
11 | O=C(C1CCN(S(=O)(=O)c2ccc3[nH]c(=O)oc3c2)CC1)N1CC=C(c2ccccc2)CC1 | > 100 µM (inactive) | –
12 | COc1ccc(CNC(=O)CSc2sc3c(O)cc(=O)[nH]c3c2C#N)cc1OC | > 100 µM (inactive) | –
13 | O=C(CCNS(=O)(=O)c1ccc2[nH]c(=O)oc2c1)Nc1cccc(-c2ccno2)c1 | > 100 µM (inactive) | –
14 | N#Cc1c(SCC(=O)Nc2nncs2)sc2c(O)cc(=O)[nH]c12 | > 100 µM (inactive) | –
15 | CC(C)NC(=O)CSc1sc2c(O)cc(=O)[nH]c2c1C#N | > 100 µM (inactive) | –
16 | CC(C(=O)Nc1ccc(C(=O)O)c(O)c1)N1C(=O)/C(=C\c2ccco2)SC1=S (configuration not stated) | > 100 µM (inactive) | –
17 | COc1cc(C(=O)NN=Cc2ccccn2)cc(OC)c1OC | – | 4.51
18 | Cc1ccc(C)c(NC(=O)CCNS(=O)(=O)c2ccc3[nH]c(=O)oc3c2)c1 | > 100 µM (inactive) | –
19 | O=C(CCCN1C(=O)/C(=C\c2ccco2)SC1=S)Nc1ccc(O)cc1C(=O)O | > 100 µM (inactive) | –
20 | Cc1cc(NC(=O)CSc2sc3c(O)cc(=O)[nH]c3c2C#N)ccc1Br | > 100 µM (inactive) | –
21 | COc1cc(C(=O)NNC(=S)NC(=O)c2ccccc2C)cc(OC)c1OC | – | 4.67
22 | COc1ccc(NC(=O)CCNS(=O)(=O)c2ccc3[nH]c(=O)oc3c2)cc1Cl | > 100 µM (inactive) | –
23 | COc1ccc(N2CCN(C(=O)CN3C(=O)/C(=C\c4ccco4)SC3=S)CC2)cc1 | > 100 µM (inactive) | –
24 | CCc1nnc(NC(=O)CSc2sc3c(O)cc(=O)[nH]c3c2C#N)s1 | > 100 µM (inactive) | –
25 | N#Cc1c(SCC(=O)Nc2ccc(C(F)(F)F)cc2)sc2c(O)cc(=O)[nH]c12 | > 100 µM (inactive) | –
26 | COc1ccc(NC(=S)NCCC(c2ccccc2)c2ccccc2)cc1 | – | 4.28
27 | O=C(N/N=C/c1ccco1)c1cc(O)c(O)c(O)c1 | > 100 µM (inactive) | –
28 | CC(C)N1CCC(=NNC(=O)c2cc(O)c(O)c(O)c2)CC1 | > 100 µM (inactive) and 66.6 µM | –
29 | Cc1ccc(NC(=O)CCNS(=O)(=O)c2ccc3[nH]c(=O)oc3c2)cc1 | > 100 µM (inactive) | –
30 | N#Cc1c(SCC(=O)Nc2ccccc2C(F)(F)F)sc2c(O)cc(=O)[nH]c12 | > 100 µM (inactive) | –

Continued, values first:

Row | EC50 | pEC50 | Structure (SMILES)
31 | > 100 µM (inactive) | – | N#Cc1c(SCC(=O)Nc2ccc(Cl)cc2Cl)sc2c(O)cc(=O)[nH]c12
32 | > 100 µM (inactive) | – | O=C(CCN1C(=O)/C(=C/c2ccco2)SC1=S)Nc1ccc(C(=O)O)c(O)c1
33 | – | 4.37 | O=C1/C(=C/c2ccco2)SC(=S)N1C1CCS(=O)(=O)C1 (configuration not stated)
34 | > 100 µM (inactive) | – | COc1ccc(OC)c(NC(=O)CSc2sc3c(O)cc(=O)[nH]c3c2C#N)c1
35 | > 100 µM (inactive) | – | N#Cc1c(SCC(=O)Nc2nc3ccccc3s2)sc2c(O)cc(=O)[nH]c12
36 | > 100 µM (inactive) | – | CCOC(=O)NC(=O)CSc1sc2c(O)cc(=O)[nH]c2c1C#N
37 | > 100 µM (inactive) | – | CCOC(=O)N1CCN(S(=O)(=O)c2ccc3[nH]c(=O)oc3c2)CC1
38 | > 100 µM (inactive) | – | CC(C(=O)NCCc1ccc(O)c(O)c1)N1C(=O)/C(=C\c2ccco2)SC1=S (configuration not stated)
39 | > 100 µM (inactive) | – | Cc1ccc(Cl)cc1NC(=O)CSc1sc2c(O)cc(=O)[nH]c2c1C#N
40 | > 100 µM (inactive) | – | CC(C(=O)Nc1ccc(C(=O)O)cc1)N1C(=O)/C(=C\c2ccco2)SC1=S (configuration not stated)
41 | > 100 µM (inactive) | – | O=C(CN1C(=O)/C(=C\c2ccco2)SC1=S)Nc1ccccc1C(=O)O
42 | > 100 µM (inactive) | – | O=C(CN1C(=O)/C(=C\c2ccco2)SC1=S)Nc1ccc(C(=O)O)cc1
43 | – | 4.08 | CCN(C(=O)C(C)N1C(=O)/C(=C/c2ccco2)SC1=S)C1CCS(=O)(=O)C1 (configuration not stated)
44 | > 100 µM (inactive) | – | CCSc1nnc(NC(=O)CSc2sc3c(O)cc(=O)[nH]c3c2C#N)s1
45 | > 100 µM (inactive) | – | COc1ccc(CNC(=O)CSc2sc3c(O)cc(=O)[nH]c3c2C#N)cc1
46 | – | 4.37 | CCN(C(=O)CN1C(=O)/C(=C\c2ccco2)SC1=S)C1CCS(=O)(=O)C1 (configuration not stated)
47 | > 100 µM (inactive) | – | N#Cc1c(SCC(=O)Nc2nccs2)sc2c(O)cc(=O)[nH]c12
48 | – | 4.51 | O=C(CN1C(=O)/C(=C/c2ccco2)SC1=S)NC1CCS(=O)(=O)C1 (configuration not stated)
49 | > 100 µM (inactive) | – | N#Cc1c(SCC(=O)NCc2ccc3c(c2)OCO3)sc2c(O)cc(=O)[nH]c12

Row | EC50 | pEC50 | Structure (SMILES)
50 | > 100 µM (inactive) | – | O=C(N/N=C/C1CC=CCC1)c1cc(O)c(O)c(O)c1 (configuration not stated)
51 | > 100 µM (inactive) | – | COc1cc(C(=O)NNC(=O)C2CC2)cc(OC)c1OC
52 | > 100 µM (inactive) | – | CSc1cccc(NC(=O)CCNS(=O)(=O)c2ccc3[nH]c(=O)oc3c2)c1
53 | > 100 µM (inactive) | – | CC(C(=O)NCCc1ccc(O)cc1)N1C(=O)/C(=C/c2ccco2)SC1=S (configuration not stated)
54 | > 100 µM (inactive) | – | O=C(CCNS(=O)(=O)c1ccc2[nH]c(=O)oc2c1)Nc1ccccc1
55 | > 100 µM (inactive) | – | O=C(CN1C(=O)/C(=C\c2ccco2)SC1=S)Nc1cccc(C(=O)O)c1
56 | > 100 µM (inactive) | – | Cc1csc(NC(=O)CSc2sc3c(O)cc(=O)[nH]c3c2C#N)n1
57 | > 100 µM (inactive) | – | O=C(NNC(=O)c1cc(O)c(O)c(O)c1)NC1CCCCC1
58 | > 100 µM (inactive) | – | NS(=O)(=O)c1ccc(-c2ccc(/C=C3\SC(=S)N(C4CCS(=O)(=O)C4)C3=O)o2)cc1 (configuration not stated)
59 | > 100 µM (inactive) | – | O=C(CN1C(=O)/C(=C/c2ccco2)SC1=S)Nc1cccc(C(=O)O)c1
60 | > 100 µM (inactive) | – | O=S(=O)(Nc1ncccn1)c1ccc(NC(=S)NCCC(c2ccccc2)c2ccccc2)cc1
61 | > 100 µM (inactive) | – | Cc1ccc(/C=C2\SC(=S)N(C3CCS(=O)(=O)C3)C2=O)o1 (configuration not stated)
62 | > 100 µM (inactive) | – | COc1cc([N+](=O)[O-])ccc1NC(=S)NCCC(c1ccccc1)c1ccccc1
63 | > 100 µM (inactive) | – | Cc1ccc(NC(=O)CCNS(=O)(=O)c2ccc3[nH]c(=O)oc3c2)cc1F
64 | > 100 µM (inactive) | – | O=C(N/N=C/c1ccccc1F)c1cc(O)c(O)c(O)c1
65 | – | 4.35 | S=C(NCCC(c1ccccc1)c1ccccc1)Nc1ccc(Cl)cc1Cl
66 | – | 4.28 | O=C(CN1C(=O)/C(=C/c2ccco2)SC1=S)NC1C=CS(=O)(=O)C1 (configuration not stated)
67 | – | 4.18 | FC(F)(F)c1cccc(NC(=S)NCCC(c2ccccc2)c2ccccc2)c1
